Measurements published in BigSolDB 2.1.

Q: What does the source list for OC(Cn1cncn1)(Cn1cncn1)c1ccc(F)cc1F?
A: solubility (mole fraction) (in ethanol, 293.15 K): 0.0105; solubility (mole fraction) (in ethanol, 298.15 K): 0.0123; solubility (mole fraction) (in ethanol, 303.15 K): 0.014; solubility (mole fraction) (in ethanol, 308.15 K): 0.0157; solubility (mole fraction) (in ethanol, 313.15 K): 0.0183; solubility (mole fraction) (in ethanol, 318.15 K): 0.023; solubility (mole fraction) (in ethanol, 323.15 K): 0.0282; solubility (mole fraction) (in water, 293.15 K): 7.76e-05; solubility (mole fraction) (in water, 298.15 K): 7.99e-05; solubility (mole fraction) (in water, 303.15 K): 8.28e-05; solubility (mole fraction) (in water, 308.15 K): 8.58e-05; solubility (mole fraction) (in water, 313.15 K): 9.06e-05; solubility (mole fraction) (in water, 318.15 K): 9.59e-05; solubility (mole fraction) (in water, 323.15 K): 0.000104
